Measured values from BigSolDB 2.1.

Cc1cc(C(=O)O)ccc1[N+](=O)[O-]
Details	solubility (mole fraction)
in 1,4-dioxane, 283.15 K	0.0407
in 1,4-dioxane, 285.65 K	0.0428
in 1,4-dioxane, 288.15 K	0.0448
in 1,4-dioxane, 290.65 K	0.0469
in 1,4-dioxane, 293.15 K	0.0493
in 1,4-dioxane, 295.65 K	0.0519
in 1,4-dioxane, 298.15 K	0.0545
in 1,4-dioxane, 300.65 K	0.0571
in 1,4-dioxane, 303.15 K	0.06
in 1,4-dioxane, 305.65 K	0.0628
in 1,4-dioxane, 308.15 K	0.0658
in 1,4-dioxane, 310.65 K	0.0688
in 1,4-dioxane, 313.15 K	0.0718
in 1,4-dioxane, 315.65 K	0.0754
in 1,4-dioxane, 318.15 K	0.0802
in DMF, 283.15 K	0.0677
in DMF, 285.65 K	0.0709
in DMF, 288.15 K	0.0754
in DMF, 290.65 K	0.0795
in DMF, 293.15 K	0.0845
in DMF, 295.65 K	0.0908
in DMF, 298.15 K	0.0975
in DMF, 300.65 K	0.104
in DMF, 303.15 K	0.111
in DMF, 305.65 K	0.118
in DMF, 308.15 K	0.126
in DMF, 310.65 K	0.135
in DMF, 313.15 K	0.142
in DMF, 315.65 K	0.152
in DMF, 318.15 K	0.162
in NMP, 283.15 K	0.0856
in NMP, 285.65 K	0.0872
in NMP, 288.15 K	0.09
in NMP, 290.65 K	0.0933
in NMP, 293.15 K	0.0965
in NMP, 295.65 K	0.1
in NMP, 298.15 K	0.105
in NMP, 300.65 K	0.109
in NMP, 303.15 K	0.113
in NMP, 305.65 K	0.118
in NMP, 308.15 K	0.123
in NMP, 310.65 K	0.128
in NMP, 313.15 K	0.133
in NMP, 315.65 K	0.138
in NMP, 318.15 K	0.145
in acetone, 283.15 K	0.0204
in acetone, 285.65 K	0.0212
in acetone, 288.15 K	0.022
in acetone, 290.65 K	0.0228
in acetone, 293.15 K	0.0238
in acetone, 295.65 K	0.0247
in acetone, 298.15 K	0.026
in acetone, 300.65 K	0.0273
in acetone, 303.15 K	0.0285
in acetone, 305.65 K	0.0299
in acetone, 308.15 K	0.0311
in acetone, 310.65 K	0.0325
in acetone, 313.15 K	0.0338
in acetone, 315.65 K	0.0353
in acetone, 318.15 K	0.0372
in acetonitrile, 283.15 K	0.00255
in acetonitrile, 285.65 K	0.00276
in acetonitrile, 288.15 K	0.00302
in acetonitrile, 290.65 K	0.00328
in acetonitrile, 293.15 K	0.00355
in acetonitrile, 295.65 K	0.00382
in acetonitrile, 298.15 K	0.00412
in acetonitrile, 300.65 K	0.00438
in acetonitrile, 303.15 K	0.00469
in acetonitrile, 305.65 K	0.00498
in acetonitrile, 308.15 K	0.00529
in acetonitrile, 310.65 K	0.00564
in acetonitrile, 313.15 K	0.00598
in acetonitrile, 315.65 K	0.00638
in acetonitrile, 318.15 K	0.00688
in ethanol, 283.15 K	0.00751
in ethanol, 285.65 K	0.0078
in ethanol, 288.15 K	0.00818
in ethanol, 290.65 K	0.00866
in ethanol, 293.15 K	0.00915
in ethanol, 295.65 K	0.00964
in ethanol, 298.15 K	0.0102
in ethanol, 300.65 K	0.0108
in ethanol, 303.15 K	0.0113
in ethanol, 305.65 K	0.0119
in ethanol, 308.15 K	0.0125
in ethanol, 310.65 K	0.0132
in ethanol, 313.15 K	0.0138
in ethanol, 315.65 K	0.0146
in ethanol, 318.15 K	0.0155
in ethyl acetate, 283.15 K	0.0106
in ethyl acetate, 285.65 K	0.0111
in ethyl acetate, 288.15 K	0.0116
in ethyl acetate, 290.65 K	0.0123
in ethyl acetate, 293.15 K	0.0127
in ethyl acetate, 295.65 K	0.0134
in ethyl acetate, 298.15 K	0.014
in ethyl acetate, 300.65 K	0.0146
in ethyl acetate, 303.15 K	0.0153
in ethyl acetate, 305.65 K	0.0159
in ethyl acetate, 308.15 K	0.0167
in ethyl acetate, 310.65 K	0.0175
in ethyl acetate, 313.15 K	0.0185
in ethyl acetate, 315.65 K	0.0193
in ethyl acetate, 318.15 K	0.0205
in isopropanol, 283.15 K	0.00877
in isopropanol, 285.65 K	0.00915
in isopropanol, 288.15 K	0.00966
in isopropanol, 290.65 K	0.0102
in isopropanol, 293.15 K	0.0108
in isopropanol, 295.65 K	0.0115
in isopropanol, 298.15 K	0.0122
in isopropanol, 300.65 K	0.0129
in isopropanol, 303.15 K	0.0136
in isopropanol, 305.65 K	0.0143
in isopropanol, 308.15 K	0.0151
in isopropanol, 310.65 K	0.016
in isopropanol, 313.15 K	0.0169
in isopropanol, 315.65 K	0.0181
in isopropanol, 318.15 K	0.0192
in methanol, 283.15 K	0.00606
in methanol, 285.65 K	0.00664
in methanol, 288.15 K	0.00734
in methanol, 290.65 K	0.00809
in methanol, 293.15 K	0.00879
in methanol, 295.65 K	0.00956
in methanol, 298.15 K	0.0104
in methanol, 300.65 K	0.0111
in methanol, 303.15 K	0.012
in methanol, 305.65 K	0.0129
in methanol, 308.15 K	0.0137
in methanol, 310.65 K	0.0147
in methanol, 313.15 K	0.0158
in methanol, 315.65 K	0.0169
in methanol, 318.15 K	0.0184
in n-butanol, 283.15 K	0.00676
in n-butanol, 285.65 K	0.00725
in n-butanol, 288.15 K	0.00789
in n-butanol, 290.65 K	0.00844
in n-butanol, 293.15 K	0.00913
in n-butanol, 295.65 K	0.00994
in n-butanol, 298.15 K	0.0108
in n-butanol, 300.65 K	0.0116
in n-butanol, 303.15 K	0.0125
in n-butanol, 305.65 K	0.0134
in n-butanol, 308.15 K	0.0144
in n-butanol, 310.65 K	0.0153
in n-butanol, 313.15 K	0.0163
in n-butanol, 315.65 K	0.0174
in n-butanol, 318.15 K	0.0188
in n-propanol, 283.15 K	0.00726
in n-propanol, 285.65 K	0.00765
in n-propanol, 288.15 K	0.00815
in n-propanol, 290.65 K	0.00866
in n-propanol, 293.15 K	0.00914
in n-propanol, 295.65 K	0.00966
in n-propanol, 298.15 K	0.0103
in n-propanol, 300.65 K	0.0109
in n-propanol, 303.15 K	0.0115
in n-propanol, 305.65 K	0.0121
in n-propanol, 308.15 K	0.0129
in n-propanol, 310.65 K	0.0137
in n-propanol, 313.15 K	0.0145
in n-propanol, 315.65 K	0.0155
in n-propanol, 318.15 K	0.0164
in toluene, 283.15 K	0.0165
in toluene, 285.65 K	0.0174
in toluene, 288.15 K	0.0184
in toluene, 290.65 K	0.0191
in toluene, 293.15 K	0.0202
in toluene, 295.65 K	0.0211
in toluene, 298.15 K	0.0221
in toluene, 300.65 K	0.0231
in toluene, 303.15 K	0.0243
in toluene, 305.65 K	0.0253
in toluene, 308.15 K	0.0265
in toluene, 310.65 K	0.0279
in toluene, 313.15 K	0.0295
in toluene, 315.65 K	0.0314
in toluene, 318.15 K	0.0333
